Laboratory results published in patent publication US20110142873A1 (priority 2006, published 2011).

What was measured:
[1] = test system: E7-expressing TC-1 tumors; design: species or system C57BL/6 mice; conditions: mouse, in vivo, sc
[2] = test system: E7-specific CD8-positive T lymphocytes; design: species or system C57Bl/6 mice; conditions: mouse, in vivo
[3] = test system: E7 and HspE7; design: species or system C57Bl/6 female mice; conditions: mouse, in vivo
[4] = test system: E7-expressing TC-1.K tumor cells; assay: Regression of large, established TC-1 tumors treated from day 28; design: species or system C57Bl/6 mice; conditions: mouse, in vivo

Row | Substance | anti-tumor activity [1] | biological activity of immune stimulant administered in the absence of HspE7 [2] | antibody response to E7 and HspE7 [3] | regression of large, established tumors [4]
1 | PolyI:C | no effect on tumor growth | did not display this activity |  | 
2 | PolyICLC |  | did not display this activity | did not produce an antibody response | no regression
